According to patent publication US5744444A, “HPTH-fragment-(1-37), the preparation thereof, medicaments containing same and the use thereof” (HaemoPep Pharma GmbH, priority 1989, dated 1998):

B1: hPTH-(1-84): the secreted PTH molecule consisting of 84 amino acids (peptide, UniProt P01270 32-115, looked up)
Parathyroid hormone: SVSEIQLMHNLGKHLNSMERVEWLRKKLQDVHNFVALGAPLAPRDAGSQRPRKKEDNVLVESHEKSLGEADKADVNVLTKAKSQ
modifications: Parathyroid hormone
notes: the secreted PTH molecule consisting of 84 amino acids

Experiments:
[1] = secondary structure by UV circular dichroism; format: physicochemical; details: 50 μg/ml, 10 mM Tris-HCl buffer pH 7.5, room temperature, 190-240 nm; calculated by the method of Reed and Kinzel
Protocol: The circular dichroism was measured by means of a Jasco J-500 Automatic Recording Spectropolarimeter coupled with a Jasco DP-500 Data Processor. For the determination of the secondary structure, the measurement was carried out in the spectral range of from 190 nm to 240 nm at room temperature in a selected quartz cuvette at a light path of 1 mm. The parathormone concentrations employed were 50 μg/ml of hPTH-(1-33), 50 μg/ml of hPTH-(1-37) and 50 μg/ml of hPTH-(1-38). 10 mM Tris-HCl buffer pH 7.5 was used for dissolution (other conditions of the measurement: Sensitivity 2 milli-degrees/cm; time constant 2 seconds; recorder speed: 4 nm/min; wave length expansion: 5 nm/cm). The curves in FIG. 13 for hPTH-(1-33) hPTH-(1-37) and hPTH-(1-38) are average values for the signals from 4 subsequent measurements minus the base line values.
The evaluation for determining the secondary structure was performed in accordance with the method described by Reed and Kinzel (Biochemistry 23, 1357-1362, 1984).

hPTH-(44-68)-RIA = details: synthetic hPTH peptides; data provided by the producer (Immundiagnostik); cited from earlier work
hPTH-(53-84)-RIA = details: synthetic hPTH peptides; data provided by the producer (Immundiagnostik); cited from earlier work

Molecule | α-helix proportion of the secondary structure [1] | cross-reaction in the hPTH-(44-68)-RIA (hPTH-(44-68)-RIA) | cross-reaction in the hPTH-(53-84)-RIA (hPTH-(53-84)-RIA)
hPTH-(1-38): known synthetic amino-terminal partial sequence of human PTH, comparison peptide (SVSEIQLMHNLGKHLNSMERVEWLRKKLQDVHNFVALG; Parathyroid hormone; UniProt P01270 32-69, looked up, fragment) | about 27% |  | 
hPTH-(64-84): synthetic hPTH peptide tested for cross-reaction in the RIAs (EKSLGEADKADVNVLTKAKSQ; Parathyroid hormone; UniProt P01270 95-115, looked up, fragment) |  | do not show any cross-reaction | 100%
hPTH-(1-33): synthetic N-terminal human PTH fragment, comparison peptide (SVSEIQLMHNLGKHLNSMERVEWLRKKLQDVHN; Parathyroid hormone; UniProt P01270 32-64, looked up, fragment) | similarly low as in hPTH-(1-38) |  | 
hPTH-(28-48): synthetic hPTH peptide tested for cross-reaction in the RIAs (LQDVHNFVALGAPLAPRDAGS; Parathyroid hormone; UniProt P01270 59-79, looked up, fragment) |  | do not show any cross-reaction | do not show any cross-reaction
hPTH-(44-68): synthetic hPTH peptide, standard of the medium-regional RIA (RDAGSQRPRKKEDNVLVESHEKSLG; Parathyroid hormone; UniProt P01270 75-99, looked up, fragment) |  |  | do not show any cross-reaction
hPTH-(53-84): synthetic hPTH peptide, standard of the C-terminal RIA (KKEDNVLVESHEKSLGEADKADVNVLTKAKSQ; Parathyroid hormone; UniProt P01270 84-115, looked up, fragment) |  | 100% | 
hPTH-(1-34): known synthetic amino-terminal partial sequence of human PTH (SVSEIQLMHNLGKHLNSMERVEWLRKKLQDVHNF; Parathyroid hormone; UniProt P01270 32-65, looked up, fragment) |  | do not show any cross-reaction | do not show any cross-reaction
B1 |  | 100% | 100%
